Test results: patent US6531582B1, “2-O-(9z,12z-octadecadienoyl)-3-O-[α-D-galactopyranosyl-(1″-6′)-O-α-D-galactopyranosyl]glycerol and pharmaceutical composition containing the same” (priority 2000, dated 2003)
Entries after “also recorded” stand apart in the source; their conditions may differ.

What was measured:
[1] = Effect of the compounds separated from Cibotii rhizoma on arthritis; settings: summary statement
[2] = test system: smooth muscle; settings: cited from earlier work
[3] = test system: edema of arthritis; assay: Inhibitory effect on edema of arthritis (Zymosan-A/Freund's adjuvant induced paw edema); format: in vivo; settings: albino rats; for inhibitory effect on edema: test for edema induction
Procedure: In order to observe the inhibitory effect on edema of the pharmaceutical composition of the present invention, 6 albino rats weighing 200 g were used per test group to induce edema by injecting the mixture of 0.5 ml of Zymosan-A (20 mg/ml/kg) and 0.5 ml of Freund's adjuvant into ST36 position of left paw and then observed for the progress of edema for 70 days by taking a photograph before and after induction of edema. The water extract and organic solvent fractions of the pharmaceutical composition of the present invention were respectively constituted in the concentration of 0.6 mg/ml and then orally administered for 14 days to albino rats in an amount of 1 ml per kg of body weight once a day to determine the inhibitory effect on edema. As the test sample, the organic solvent fractions of the pharmaceutical composition including ABE, ABB, ABW, CBE, CBB, CBW, LNE, LNB, LNW, CRB, CRW, SSH and SSW were respectively used. As the result of this test, it was observed that edema was started to induce on day 4 and reached the peak point after about 45 days. The period for this test was established as 70 days after edema induction to observe the inhibitory effect on edema of the extracts of the present invention. As the result, the edema size was measured using a precision gauge.
The inihibitory effect on edema of the compound according to the present invention as measured after 70 days have passed are listed in the following Tables 2 and 3 and FIG. 4.

[4] = test system: CAM formation induced by synovial cells; assay: Angiogenesis of synovial cells in chorioallantoic membrane (CAM) of fertilized egg; format: in vivo; settings: 10 μg/ml on CAM, synovial cells injected, compared to control group
Procedure: In order to determine the effect of the organic solvent fractions on the angionenesis of synovial cells using the cells separated in Experiment 2, synovial cells were injected into fertilized egg and then incubated in an incubator at 37° C. for 3 days to observe the formation of chorioallantoic membrane (CAM). In the present state, the fractions separated according to the above method were respectively distributed on CAM at the concentration of 10 μg/ml to observe the degree of CAM decrease.

[5] = test system: NO formation in RAW 264.7 cell lines; assay: NO formation in macrophage cells stimulated by lipid polysaccharide (Greiss reagent); format: cell-based; settings: 10 μg/ml, LPS-stimulated RAW 264.7
Procedure: FIG. 7 is (a) a bar graph showing the inhibition of NO formation when Raw 264.7 cell lines are treated with the organic solvent fraction of a single drug of the pharmaceutical composition at the concentration of 10 μg/ml for 24 hours an then stimulated with LPS, and (b) a bar graph showing the inhibition of NO formation when the cell lines treated with CBB fraction and LNE fraction as the organic solvent fractions are stimulated with LPS according to the same manner as above (a).
In order to identify whether the extracts obtained according to the present invention can inhibit the synthesis of nitric oxide (NO) as the potent inducer of inflammation in blood due to edema as above, macrophage RAW 264.7 cell lines were distributed in a 96-well microplate at the concentration of 10^3 cells per well and then incubated for 12 hours. Then, lipid polysaccharide was added to the plate at the concentration of 50 ng/well to stimulate the cells for 2 hours. The respective organic solvent fractions were added to the plate to the final concentration of 10 μg/ml followed by addition of 50 μl of Greiss reagent solution, and then allowed to react together at room temperature. Then, the absorbance of the plate was measured at 540 nm of ELISA (enzyme-linked immunosorbent assay) reader. […]

[6] = test system: Raw 264.7 cell lines; assay: Induction of apoptosis of macrophages; format: cell-based; settings: Raw 264.7, 24 hours, microscopy
Procedure: (§1) In order to determine whether the compound identified as the effective component of the pharmaceutical composition separated according to the present invention can induce the apoptosis of Raw 264.7 cell lines as macrophage involved in inflammatory reaction and synovial cells, the cells were distributed on 5% DMEM medium supplemented with penicillin/streptomycin in a 6-well culture dish at the concentration of 10^4 cells and then incubated at 37° C. for 24 hours while adding the extractions as above at the concentration of 10 μg/ml to observe the reaction. Apoptosis was examined by taking a photograph of apoptosis-induced cells under a polarizing microscope of 200 magnifications.

[7] = test system: synovial cells; assay: Induction of apoptosis of synovial cell lines; format: cell-based, human; settings: 24 hours, microscopy
Procedure: The synovial cells separated from outpatients suffering from rheumatoid arthritis were distributed on 5% DMEM medium supplemented with penicillin/streptomycin in a 6-well culture dish at the concentration of 10^4 cells and then incubated for 24 hours at 37° C. to observe the surviving cells. In order to determine the presence or absence of cells and the proliferating state of cells, apoptosis-induced cells were examined by taking their photographs under a phase-contrast microscope of 200 magnifications.
as §1

[8] = test system: Raw 264.7 cell lines; assay: Effect on cell cycle of macrophage cells (flow cytometry); format: cell-based; settings: Raw 264.7, LPS-stimulated, 20 μg/ml
Procedure: (§2) Two kinds of cells were incubated as in Experiment 6 and then washed with PBS (phosphate-buffered saline). LPS was distributed on the respective dishes at the concentration of 50 μg/ml to stimulate the cells. Then, the extract according to the present invention was added over 2 hours so as to make the final concentration of 20 μg/ml. The supernatant was removed, washed with PBS and then treated with trypsin. The cells were harvested, introduced into Eppendorf tube and then centrifuged at 1,000 rpm for 5 minutes to remove the supernatant. The residue was fixed with addition of 1 ml of 100% ethanol. At this time, the mixture of 5 μg/ml propidium iodide and RNAse was separately prepared. The fixed cells were centrifuged to remove the supernatant and then washed once with PBS. Simultaneously, the staining agent as previously prepared above was added to the fixed cells and then warmed in an incubator at 37° C. for 30 minutes. The cells stained with propidium iodide was sealed with foil, stored at 4° C. and then subjected to a flow cytometry analysis using FACscan (Becton Dickinson, Calif.) as the analyzing apparatus.

[9] = test system: synovial cell lines; assay: Effect on cell cycle of synovial cell lines (flow cytometry); format: cell-based, human; settings: LPS-stimulated, 20 μg/ml
Procedure: as §2

[10] = test system: iNOS; assay: Inhibition of iNOS expression at the level of transcription through RT-PCR; format: cell-based, human; settings: FIG. 12a, lanes 1-8; 50 μg/ml, LPS-stimulated
Procedure: (§3) In order to identify the ingredient having an inhibitory activity against COX-II and inducible nitric oxide synthetase (iNOS) as the causal factors of rheumatoid arthritis in the extract used as the effective component of the pharmaceutical composition according to the present invention as in Experiment 7 above, the cells were distributed in T75 flask at the concentration of 10^5 cells, incubated for 7 days and then stimulated for 2 hours by introducing LPS in the flask at the concentration of 50 ng/ml. Then, the extract of the present invention was added so as to make the final concentration of 50 μg/ml. The cells were harvested into a 1.5 ml Eppendorf tube and centrifuged with 15,000 rpm at 4° C. for 15 minutes to remove the supernatant. 200 μl of RNAzol solution was added to the residue followed by addition of 50 μl of chloroform. The cells were lysed by careful pippeting, and then centrifuged with 15,000 rpm at 4° C. for 15 minutes to recover a total RNA, which was then precipitated at 4° C. for 15 minutes by adding the same volume of isopropanol, washed once with 75% ethanol and then dried. The cell lysate was dissolved by adding 20 μl of RNase free D2O and then warming the mixture at 60° C. for 30 minutes. […]

[11] = test system: COX-II; assay: Inhibition of COX-II expression at the level of transcription through RT-PCR; format: cell-based, human
Procedure: as §3

[12] = test system: cartilage and bone of arthritic joint; assay: Joint rupture in edema-inhibited albino rats by X-ray analysis; format: in vivo; settings: edema-induced albino rats, oral, about 70 days
Procedure: FIG. 13 is X-ray photograph to show the 70-days inhibitory effect on edema as one of chronic and degenerative osteopathological symptoms of arthritis by treating the induced edema with respective fractions obtained as the organic solvent fractions of the pharmaceutical composition in an amount of 75 μg/ml for 2 weeks via oral route.
The respective water extract and organic solvent fractions were orally administered for 14 days at the concentration of 75 μg/ml to investigate their inhibitory effect on edema as in Experiment 1. The test albino rats were anesthetized to take X-ray photograph.

[13] = test system: nogo-A expressed U-373 MG glioblastoma cell line; assay: Therapeutic effect on vertebral neuroparalysis (neurite regeneration in nogo-A expressing cells); format: cell-based; settings: nogo-A expressed U-373 cell lines, phase-contrast microscopy
Excerpt: Simultaneously, it was also observed whether neurites can be regenerated by treatment with neuronal growth factor (NGF) or whether the fractions of the present invention can provide the same effect, by taking a photograph with a phase-contrast microscope of 200 magnifications.

Row | Molecule | pharmacological effect on arthritis [1] | activity for relaxing smooth muscle [2] | edema size, Before treatment ([3]; Table 3 (unit not given), oral, baseline before treatment, in mm) | edema size, After treatment ([3]; Table 3 (unit not given), oral, measured after 70 days, in mm) | inhibitory effect on edema [3] | inhibition of induction of CAM formation [4] | inhibition of NO formation [5] | induction of apoptosis [6] | induction of apoptosis [7] | effect on cell cycle [8] | effect on cell cycle [9] | effect on iNOS expression (RT-PCR, band near 278 bp) [10] | effect on COX-II expression (RT-PCR) ([11]; FIG. 12a, lanes 1-8, 50 μg/ml, LPS-stimulated) | effect on COX-II expression (RT-PCR) ([11]; FIG. 12c, respective fractions) | osteogenesis (X-ray) [12] | rupture of cartilage in arthritic portion (X-ray) [12] | regeneration of neurites [13]
1 | Cc1c(O)c2c(c(C)c1CCO)C(=O)C(C)(C)C2 [CBB-11, onitin] | moderate pharmacological effect | activity for relaxing smooth muscle |  |  |  |  |  |  |  |  |  |  |  |  |  |  | 
2 | 2-O-(9z,12z-octadecadienyl)-3-O-[α-galactopyranosyl-(1″-6′)-O-α-D-galactopyranosyl]glycerol [CBB-13] | most excellent pharmacological effect |  | 14.4 ± 2 | 2.5 ± 1 | potent inhibitory effect on edema; also recorded: most significant | more strongly inhibited the induction of CAM formation | stronger inhibitory effect on NO formation | more strongly inducing the apoptosis | more strongly inducing the apoptosis | induced the apoptosis | pattern of G0/G1 arrest | have an effect on the protein expression | inhibitory effect at the level of transcription | strongly inhibit the protein expression | effect of stimulating the osteogenesis | inhibits the rupture of cartilage in arthritic portion | neurites were lengthened
3 | CC[C@H](CC[C@@H](C)[C@H]1CC[C@H]2[C@@H]3CC=C4C[C@@H](O[C@@H]5O[C@H](CO)[C@@H](O)[C@H](O)[C@H]5O)CC[C@]4(C)[C@H]3CC[C@]12C)C(C)C [CBB-12, daucosterol] |  |  |  |  | potent inhibitory effect on edema |  |  |  |  |  |  |  |  |  |  |  | 
